Laboratory results as given in ChEMBL document CHEMBL1201862, “PubChem BioAssay data set” (2004).
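Exposure lasted 48 hours, with cells grown in 96-well plates and compounds tested at five concentrations. Abbreviation: GI50, concentration required for 50% inhibition of growth.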 Activity calls are given as the source filed them. No stated cut-off is given here; in the data, active = GI50 up to about 1.1 µM and inactive = higher.

Columns and labels:
Assay in all cases: NCI anticancer screen, dose series, 48 h
DU-145 = test system: DU-145
M19-MEL = test system: M19-MEL
NCI-H460 = test system: NCI-H460
BT-549 = test system: BT-549
NCI-H23 = test system: NCI-H23
NCI/ADR-RES = test system: NCI/ADR-RES
SF-295 = test system: SF-295
SR = test system: SR
HCT-15 = test system: HCT-15
ACHN = test system: ACHN
KM12 = test system: KM12
NCI-H522 = test system: NCI-H522
K562 = test system: K562
UO-31 = test system: UO-31
NCI-H226 = test system: NCI-H226
SW-620 = test system: SW-620
SK-MEL-5 = test system: SK-MEL-5
IGROV-1 = test system: IGROV-1
U-251 = test system: U-251
TK-10 = test system: TK-10

SMILES | GI50 (DU-145) | GI50 (M19-MEL) | GI50 (NCI-H460) | GI50 (BT-549) | GI50 (NCI-H23) | GI50 (NCI/ADR-RES) | GI50 (SF-295) | GI50 (SR) | GI50 (HCT-15) [µM] | GI50 (ACHN) | GI50 (KM12) | GI50 (NCI-H522) | GI50 (K562) | GI50 (UO-31) | GI50 (NCI-H226) | GI50 (SW-620) | GI50 (SK-MEL-5) | GI50 (IGROV-1) | GI50 (U-251) | GI50 (TK-10)
CCCCNCC(=O)O[C@]1(CC)C(=O)OCc2c1cc1n(c2=O)Cc2cc3ccccc3nc2-1 | 0.0482 µM (active) | 0.63 µM (active) | 0.0261 µM (active) | 0.391 µM (active) | 0.0769 µM (active) | 0.0789 µM (active) | 0.0705 µM (active) | 0.0101 µM (active) | 2.15 | 0.037 µM (active) | 1.63 µM (inactive) | 0.224 µM (active) | 0.476 µM (active) | 0.207 µM (active) | 0.105 µM (active) | 0.0836 µM (active) | 0.277 µM (active) | 2.3 µM (inactive) | 0.0508 µM (active) | 6.15 µM (inactive)
CC(=O)O[C@H]1[C@@H]2[C@@H]3[C@@H](C[C@H]1C)[C@@H](C)CO[C@@]1(C)CC/C=C(/C)C[C@@H]2O[C@@H]31 | – | > 100 µM (inactive) | > 100 µM (inactive) | – | > 100 µM (inactive) | – | > 100 µM (inactive) | > 100 µM (inactive) | > 100 | > 100 µM (inactive) | > 100 µM (inactive) | > 100 µM (inactive) | > 100 µM (inactive) | > 100 µM (inactive) | > 100 µM (inactive) | > 100 µM (inactive) | > 100 µM (inactive) | > 100 µM (inactive) | > 100 µM (inactive) | > 100 µM (inactive)
O=C(/C=C/c1ccco1)c1ccc(NCc2nc3ccccc3[nH]2)cc1 | – | 14.9 µM (inactive) | 23.3 µM (inactive) | – | 13.5 µM (inactive) | – | 15.6 µM (inactive) | 10.8 µM (inactive) | 15 | 17.5 µM (inactive) | 10.3 µM (inactive) | 9.62 µM (inactive) | 15.2 µM (inactive) | 13.8 µM (inactive) | 1.73 µM (inactive) | 16 µM (inactive) | 14.8 µM (inactive) | 18.1 µM (inactive) | 10.9 µM (inactive) | 17.9 µM (inactive)
O=C(O)CCC(=O)Oc1ccc(O)c2c1CCCC2=O | – | > 100 µM (inactive) | > 100 µM (inactive) | – | > 100 µM (inactive) | – | > 100 µM (inactive) | 64 µM (inactive) | > 100 | > 100 µM (inactive) | > 100 µM (inactive) | 66.5 µM (inactive) | > 100 µM (inactive) | > 100 µM (inactive) | > 100 µM (inactive) | > 100 µM (inactive) | 49.8 µM (inactive) | > 100 µM (inactive) | > 100 µM (inactive) | > 100 µM (inactive)
